Several values for one entry are separate records, joined by “and”; a condition that tells them apart may be missing. Identical values can stand only once. Inconclusive results and toxic doses are left out.
System: P388 leukemia ip, CD2F1 mice, survival T/C
Test: NCI In Vivo Anticancer Drug Screen. Data for tumor model P388 Leukemia (intraperitoneal) in CD2F1 (CDF1) mice
Settings: endpoint: median survival time, higher = longer survival
Outline: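 Mice carrying the transplanted tumor received test compound or vehicle. Survival was recorded in each group, and the value is the treated-group measurement divided by that of the vehicle-treated control group.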

[1] = dose: 25.0 mg/kg/injection, schedule: Q01DX009 (ip), vehicle: saline with Tween-80
[2] = dose: 25.0 mg/kg/injection, schedule: Q01DX009 (ip), vehicle: saline
[3] = dose: 50.0 mg/kg/injection, schedule: Q01DX009 (ip), vehicle: saline with Tween-80
[4] = dose: 50.0 mg/kg/injection, schedule: Q01DX009 (ip), vehicle: saline
[5] = dose: 100.0 mg/kg/injection, schedule: Q01DX009 (ip), vehicle: saline with Tween-80
[6] = dose: 100.0 mg/kg/injection, schedule: Q01DX009 (ip), vehicle: saline
[7] = dose: 200.0 mg/kg/injection, schedule: Q01DX009 (ip), vehicle: saline with Tween-80
[8] = dose: 200.0 mg/kg/injection, schedule: Q01DX009 (ip), vehicle: saline
[9] = dose: 100.0 mg/kg/injection, schedule: Q01DX005 (ip), vehicle: saline with Tween-80
[10] = dose: 200.0 mg/kg/injection, schedule: Q01DX005 (ip), vehicle: saline with Tween-80
[11] = dose: 60.0 mg/kg/injection, schedule: Q01DX005 (ip), vehicle: saline with Tween-80
[12] = dose: 120.0 mg/kg/injection, schedule: Q01DX005 (ip), vehicle: saline with Tween-80
[13] = dose: 240.0 mg/kg/injection, schedule: Q01DX005 (ip), vehicle: saline with Tween-80
[14] = dose: 60.0 mg/kg/injection, schedule: Q01DX005 (ip), vehicle: saline
[15] = dose: 120.0 mg/kg/injection, schedule: Q01DX005 (ip), vehicle: saline
[16] = dose: 240.0 mg/kg/injection, schedule: Q01DX005 (ip), vehicle: saline
[17] = dose: 100.0 mg/kg/injection, schedule: Q04DX002 (ip), vehicle: saline
[18] = dose: 200.0 mg/kg/injection, schedule: Q04DX002 (ip), vehicle: saline
[19] = dose: 12.5 mg/kg/injection, schedule: Q01DX009 (ip), vehicle: saline

With `O=[N+]([O-])c1ccc(CSC(=S)Nc2ccc(Cl)c(Cl)c2)cc1` as the molecule, how does the T/C [1] read?
The T/C was 106 % of control.

What about the T/C [2] of the same molecule?
The T/C was 109 % of control.

What about the T/C [3] of the same molecule?
Its T/C is 114 % of control.

And the T/C [4]?
The T/C was 107 % of control.

What about the T/C (dose: 50.0 mg/kg/injection, schedule: Q01DX009 (ip), vehicle: suspension in saline) of the same molecule?
Its T/C is 103 % of control.

What about the T/C [5] of the same molecule?
Its T/C is 115 % of control.

And the T/C [6]?
The T/C was 109 % of control.

What about the T/C (dose: 100.0 mg/kg/injection, schedule: Q01DX009 (ip), vehicle: suspension in saline) of the same molecule?
Its T/C is 113 % of control.

And the T/C [7]?
The T/C was 97 % of control.

And the T/C [8]?
The T/C was 116 % of control.

And the T/C (dose: 200.0 mg/kg/injection, schedule: Q01DX009 (ip), vehicle: suspension in saline)?
Its T/C is 115 % of control.

`c1ccc(C2=C(c3ccccc3)C3SC4CCCC3C4(N3CCOCC3)S2)cc1` (stereo unspecified) was tested. Which T/C (dose: 100.0 mg/kg/injection, schedule: Q01DX001 (ip), vehicle: Klucel (hydroxypropylcellulose) (HPC)) did it give?
The T/C was 95 % of control.

What about the T/C (dose: 200.0 mg/kg/injection, schedule: Q01DX001 (ip), vehicle: Klucel (hydroxypropylcellulose) (HPC)) of the same molecule?
The T/C was 99 % of control.

And the T/C (dose: 400.0 mg/kg/injection, schedule: Q01DX001 (ip), vehicle: Klucel (hydroxypropylcellulose) (HPC))?
The T/C was 93 % of control.

For `CCc1nc(N)nc(N)c1-c1ccc([N+](=O)[O-])c(Cl)c1`, which T/C [9] is on record?
Its T/C is 152 % of control.

And the T/C [10]?
Its T/C is 93 % of control.

What does the source list for `Cc1cc(C)cc(C(=O)NC(c2ccncc2)C2N=C(c3ccccc3)OC2=O)c1` (stereo unspecified)?
T/C [11]: 98 % of control; T/C [12]: 94 % of control; T/C [13]: 94 % of control

How did the T/C (dose: 12.5 mg/kg/injection, schedule: Q01DX001 (ip), vehicle: saline) turn out when `O=S(=O)(n1ccnc1)C(F)(F)F` was run?
Its T/C is 101 % of control.

What about the T/C (dose: 25.0 mg/kg/injection, schedule: Q01DX001 (ip), vehicle: saline) of the same molecule?
Its T/C is 96 % of control.

And the T/C (dose: 50.0 mg/kg/injection, schedule: Q01DX001 (ip), vehicle: saline)?
The T/C was 96 % of control.

Which results are given for `CC1OC(=O)C(=O)/C1=C1/CC(C)(C)N(c2ccccc2)N1` (stereo unspecified)?
T/C [1]: 104 % of control and 91 % of control; T/C [3]: 107 % of control and 108 % of control and 90 % of control; T/C [5]: 90 % of control and 96 % of control; T/C [7]: 88 % of control and 92 % of control

How did the T/C [14] turn out when `COC(=O)c1ccc(C(=O)OC)c2nn3c(N)nnc3nc12` was run?
The T/C was 110 % of control.

And the T/C [15]?
The T/C was 100 % of control.

What about the T/C [16] of the same molecule?
The T/C was 100 % of control.

How did the T/C [2] turn out when `O=C(O)CC(O)(CC(=O)O)C(=O)O.O=C(O)CC(O)(CC(=O)O)C(=O)O.[O]=[Mo]1[O][Mo](=[O])[O]1` was run?
The T/C was 93 % of control.

How did the T/C [14] turn out when `CC1(C)OC[C@@H](N)[C@@H](O)CO1` was run?
Its T/C is 104 % of control.

And the T/C [15]?
Its T/C is 104 % of control.

What about the T/C [16] of the same molecule?
Its T/C is 118 % of control.

For `SCC(CS)=C(CS)CS`, which T/C [11] is on record?
Its T/C is 112 % of control.

And the T/C [12]?
Its T/C is 113 % of control.

What about the T/C [13] of the same molecule?
The T/C was 106 % of control.

Which T/C [4] does the source give for `O=C(O)C1CSC(c2ccccc2O)N1` (stereo unspecified) here?
The T/C was 90 % of control.

And the T/C [6]?
The T/C was 96 % of control.

And the T/C [8]?
Its T/C is 90 % of control.

What does the source list for `COc1cc2c(cc1O)C(=O)CCC2`?
T/C (dose: 50.0 mg/kg/injection, schedule: Q01DX009 (ip), vehicle: Klucel (hydroxypropylcellulose) (HPC)): 102 % of control; T/C (dose: 100.0 mg/kg/injection, schedule: Q01DX009 (ip), vehicle: Klucel (hydroxypropylcellulose) (HPC)): 103 % of control; T/C (dose: 200.0 mg/kg/injection, schedule: Q01DX009 (ip), vehicle: Klucel (hydroxypropylcellulose) (HPC)): 104 % of control

What does the source list for `NC(=O)Nc1n[nH]c(-c2ccccc2)n1`?
T/C (dose: 100.0 mg/kg/injection, schedule: Q04DX003 (ip), vehicle: saline with Tween-80): 90 % of control; T/C (dose: 200.0 mg/kg/injection, schedule: Q04DX003 (ip), vehicle: saline with Tween-80): 90 % of control; T/C (dose: 400.0 mg/kg/injection, schedule: Q04DX003 (ip), vehicle: saline with Tween-80): 90 % of control

Which results are given for `CCCC1CCC(=C2C(=O)CCC2=O)O1` (stereo unspecified)?
T/C (dose: 25.0 mg/kg/injection, schedule: Q04DX002 (ip), vehicle: saline): 102 % of control; T/C (dose: 50.0 mg/kg/injection, schedule: Q04DX002 (ip), vehicle: saline): 102 % of control; T/C (dose: 100.0 mg/kg/injection, schedule: Q04DX002 (ip), vehicle: saline with Tween-80): 110 % of control; T/C [17]: 103 % of control; T/C (dose: 200.0 mg/kg/injection, schedule: Q04DX002 (ip), vehicle: saline with Tween-80): 102 % of control; T/C [18]: 100 % of control

`COc1cc(CCNC(C)=O)c(NC=O)cc1OC` was tested. Which T/C [17] did it give?
Its T/C is 108 % of control.

What about the T/C [18] of the same molecule?
The T/C was 105 % of control.

What about the T/C (dose: 400.0 mg/kg/injection, schedule: Q04DX002 (ip), vehicle: saline) of the same molecule?
The T/C was 99 % of control.

For `N#CC(C(=O)CCC(=O)C(C#N)c1c(Cl)cccc1Cl)c1c(Cl)cccc1Cl` (stereo unspecified), which T/C (dose: 50.0 mg/kg/injection, schedule: Q01DX005 (ip), vehicle: saline with Tween-80) is on record?
The T/C was 100 % of control.

What about the T/C [9] of the same molecule?
The T/C was 98 % of control.

And the T/C [10]?
The T/C was 98 % of control.

Which T/C (dose: 5.0 mg/kg/injection, schedule: Q04DX002 (ip), vehicle: saline with Tween-80) does the source give for `Cc1ccc(-c2nc(N)[nH]c2-c2ccc(C)cc2)cc1` here?
The T/C was 104 % of control.

What about the T/C (dose: 10.0 mg/kg/injection, schedule: Q04DX002 (ip), vehicle: saline with Tween-80) of the same molecule?
The T/C was 100 % of control.

And the T/C (dose: 20.0 mg/kg/injection, schedule: Q04DX002 (ip), vehicle: saline with Tween-80)?
The T/C was 99 % of control.

Which results are given for `O=C1NC(=O)C2=C1CCCC2O` (stereo unspecified)?
T/C (dose: 6.25 mg/kg/injection, schedule: Q01DX009 (ip), vehicle: saline): 102 % of control; T/C [19]: 101 % of control; T/C [2]: 110 % of control; T/C [4]: 102 % of control; T/C [6]: 107 % of control; T/C [8]: 118 % of control

For `O=C1CSC(=O)N1c1ccc(Cl)c(Cl)c1`, which T/C [19] is on record?
Its T/C is 94 % of control.

And the T/C [2]?
Its T/C is 89 % of control.

What about the T/C [3] of the same molecule?
Its T/C is 95 % of control.

What about the T/C [4] of the same molecule?
Its T/C is 88 % of control.

What about the T/C [5] of the same molecule?
The T/C was 87 % of control.

For `CC(C)C1=CC(=O)C2=C(CCC3C(C)(C(=O)O)CCC[C@]23C)C1=O` (stereo partly specified), which T/C (dose: 6.0 mg/kg/injection, schedule: Q01DX005 (ip), vehicle: Klucel (hydroxypropylcellulose) (HPC)) is on record?
Its T/C is 102 % of control.

What about the T/C (dose: 12.0 mg/kg/injection, schedule: Q01DX005 (ip), vehicle: Klucel (hydroxypropylcellulose) (HPC)) of the same molecule?
The T/C was 104 % of control.

What about the T/C (dose: 24.0 mg/kg/injection, schedule: Q01DX005 (ip), vehicle: Klucel (hydroxypropylcellulose) (HPC)) of the same molecule?
The T/C was 100 % of control.

And the T/C (dose: 48.0 mg/kg/injection, schedule: Q01DX005 (ip), vehicle: Klucel (hydroxypropylcellulose) (HPC))?
The T/C was 99 % of control.

With `Cc1cc2nc(C(C)(C)F)c(=O)[nH]c2cc1C` as the molecule, how does the T/C (dose: 100.0 mg/kg/injection, schedule: Q01DX001 (ip), vehicle: saline with Tween-80) read?
Its T/C is 102 % of control.

What about the T/C (dose: 200.0 mg/kg/injection, schedule: Q01DX001 (ip), vehicle: saline with Tween-80) of the same molecule?
The T/C was 94 % of control.

And the T/C (dose: 400.0 mg/kg/injection, schedule: Q01DX001 (ip), vehicle: saline with Tween-80)?
The T/C was 96 % of control.

`c1ccc(-c2n[se]c(-c3ccccc3)n2)cc1` was tested. Which T/C (dose: 12.5 mg/kg/injection, schedule: Q04DX002 (ip), vehicle: saline with Tween-80) did it give?
Its T/C is 102 % of control.

And the T/C (dose: 25.0 mg/kg/injection, schedule: Q04DX002 (ip), vehicle: saline with Tween-80)?
The T/C was 95 % of control.

What about the T/C (dose: 50.0 mg/kg/injection, schedule: Q04DX002 (ip), vehicle: saline with Tween-80) of the same molecule?
The T/C was 93 % of control.

What does the source list for `COc1cccc2c1C(=O)c1c(O)c3c(c(O)c1C2=O)C[C@@](O)(C(C)=O)C[C@@H]3OC1CC(N)C(OC2CC(N)C(OC)C(C)O2)C(C)O1` (stereo partly specified)?
T/C (dose: 3.13 mg/kg/injection, schedule: Q04DX003 (ip), vehicle: water): 110 % of control and 115 % of control; T/C (dose: 6.25 mg/kg/injection, schedule: Q04DX003 (ip), vehicle: water): 119 % of control and 123 % of control; T/C (dose: 50.0 mg/kg/injection, schedule: Q04DX003 (ip), vehicle: water): 112 % of control

What does the source list for `COC(=O)C=P(c1ccccc1)(c1ccccc1)c1ccccc1`?
T/C [1]: 104 % of control; T/C [3]: 100 % of control; T/C [5]: 91 % of control

Which results are given for `CS(=O)(=O)c1cc(=O)[nH]c(=O)[nH]1`?
T/C [1]: 90 % of control; T/C [3]: 95 % of control; T/C [5]: 100 % of control; T/C [7]: 95 % of control

Source: PubChem BioAssay AID330 (DTP/NCI, 2004)
